“And” between values parts separate entries of the source, which are not always exact repeats. Equal entries are not always repeated. Where no end group is shown, it is not given here.
B1: S100A7: "defensin-like" innate peptide constitutively secreted by cervical/vaginal mucosa (Abnova) (protein, UniProt P31151 2-101, looked up)
Protein S100-A7: SNTQAERSIIGMIDMFHKYTRRDDKIEKPSLLTMMKENFPNFLSACDKKGTNYLADVFEKKDKNEDKKIDFSEFLSLLGDIATDYHKQSHGAAPCSGGSQ

Key:
[1] = system: Lactobacillus iners CIP 105923; experiment: Antimicrobial assay (surviving colonies, CFU count); format: cell-based; conditions: for Bacterial survival (surviving colonies): Fig 5E, L. iners, individual replicates; for Bacterial survival (surviving colonies) / positive effect on survival in acidic conditions: pH 5.8; for positive effect on survival in potassium phosphate buffer: KPB pH 7.4, 10 mM; for positive effect on survival in potassium phosphate buffer / positive effect on survival in acidic conditions / effect on bacterial growth/survival (percentage of surviving colonies): 6 h; for positive effect on survival in potassium phosphate buffer / positive effect on survival in acidic conditions: n = 4; for effect on bacterial growth/survival (percentage of surviving colonies): peptide 1–10 µg/ml, 5 × 10^4 CFU/ml, 10 mM sodium phosphate buffer, 37 °C, plated on Columbia Blood agar, n = 3; for antimicrobial/protective activity in reducing environment: peptides pre-incubated with 2 mM DTT 30 min 37 °C, 6 h with bacteria, n = 5; for incubation time at which a significant increased percentage of surviving colonies was detected: starvation assay (no nutrients), n = 6
Method: (§1) Bacterial strains Lactobacillus crispatus DSM 20356, Lactobacillus iners CIP 105923 and Garnerella vaginalis CCUG 43336 were kindly provided by the Department of Clinical Microbiology at University Hospital Center of Liege. Lactobacillus jensenii LMG 6414 was obtained from BCCM/LMG Bacteria Collection (University of Gent, Belgium). Log-phase bacteria were grown on Columbia agar with 5% sheep blood (Becton Dickinson, Franklin Lakes, NJ, USA) at 37 °C in a humidified CO2 atmosphere (Lactobacilli) or in anaerobic jars (G. vaginalis). To analyze the antimicrobial effect of innate peptides expressed by vaginal/cervical mucosa, 5 × 10^4 colony-forming unit (CFU)/ml were mixed with different peptides (concentration range: 1–10 µg/ml) in 10 mM sodium phosphate buffer (SPB) (final volume 100 µl) and incubated for 45 min to 9 h at 37 °C. Where indicated, the peptides were incubated with 2 mM dithiothreitol (DTT) (Invitrogen, Carlsbad, CA, USA) for 30 min at 37 °C before adding the bacteria. In indicated experiments, incubation was carried out in potassium phosphate buffer (KPB) (pH: 7.4, 10 mM). The following peptides were tested: HβD1 (PeptaNova, Sandhausen, Germany), HβD2 (PeptaNova), HβD3 (PeptaNova), HβD4 (PeptaNova), HD-5 (PeptaNova), HD-6 (PeptaNova), elafin (PeptaNova), S100A7 (Abnova, Taipei City, Taiwan) and SLPI (R&D Systems, Minneapolis, MI, USA). Bacterial suspensions were then plated on Columbia Blood agar plates for 24–48 h to determine CFU. High-resolution images for each condition were taken. Colony detection and counts were finally performed using ImageJ software (NIH, Bethesda, MD, USA) and verified by manual counting.

[2] = system: Lactobacillus jensenii LMG 6414; experiment: as above; format: cell-based; conditions: for Bacterial survival (surviving colonies): Fig 5E, L. jensenii, individual replicates; for Bacterial survival (surviving colonies) / positive effect on survival in acidic conditions: pH 5.8; for positive effect on survival in potassium phosphate buffer: KPB pH 7.4, 10 mM; for positive effect on survival in potassium phosphate buffer / positive effect on survival in acidic conditions / effect on bacterial growth/survival (percentage of surviving colonies): 6 h; for positive effect on survival in potassium phosphate buffer / positive effect on survival in acidic conditions / antimicrobial/protective activity in reducing environment: n = 4; for effect on bacterial growth/survival (percentage of surviving colonies): peptide 1–10 µg/ml, 5 × 10^4 CFU/ml, 10 mM sodium phosphate buffer, 37 °C, plated on Columbia Blood agar, n = 3; for antimicrobial/protective activity in reducing environment: peptides pre-incubated with 2 mM DTT 30 min 37 °C, 6 h with bacteria; for incubation time at which a significant increased percentage of surviving colonies was detected: starvation assay (no nutrients), 45 min to 9 h, n = 8
Method: as §1

[3] = system: Lactobacillus crispatus DSM 20356; experiment: as above; format: cell-based; conditions: for Bacterial survival (surviving colonies): Fig 5E, L. crispatus, individual replicates; for Bacterial survival (surviving colonies) / positive effect on survival in acidic conditions: pH 5.8; for positive effect on survival in potassium phosphate buffer: KPB pH 7.4, 10 mM; for positive effect on survival in potassium phosphate buffer / positive effect on survival in acidic conditions / effect on bacterial growth/survival (percentage of surviving colonies): 6 h; for positive effect on survival in potassium phosphate buffer / positive effect on survival in acidic conditions: n = 4; for effect on bacterial growth/survival (percentage of surviving colonies): peptide 1–10 µg/ml, 5 × 10^4 CFU/ml, 10 mM sodium phosphate buffer, 37 °C, plated on Columbia Blood agar, n = 3; for antimicrobial/protective activity in reducing environment: peptides pre-incubated with 2 mM DTT 30 min 37 °C, 6 h with bacteria, n = 6; for incubation time at which a significant increased percentage of surviving colonies was detected: starvation assay (no nutrients), 45 min to 9 h, n = 8
Method: as §1

L. iners [4] = experiment: ATP measurement in bacteria (BacTiter-Glo); format: cell-based, Lactobacillus iners; conditions: 6 × 10^7 CFU/ml, peptide 5 µg, 10 mM SPB, 6 h, 37 °C; luminescence; n = 5; statistical significance not reached in all conditions
Method: (§2) ATP level in bacteria was determined using the BacTiter-Glo Microbial Cell Viability Assay (Promega) according to manufacturer’s recommendations. For each bacterial species, 6 ×10^7 CFU/ml were mixed with elafin or S100A7 (5 µg) in 10 mM SPB and incubated 6 h at 37 °C. One hundred µl of bacterial-peptide solution were then mixed with an equal volume of BacTiter-Glo reagent and incubated for 5 min at room temperature. Luminescence was measured using a Centro LB960 microplate luminometer (Berthold Technologies, Bad Wildbad, Germany).

L. crispatus [5] = experiment: ATP measurement in bacteria (BacTiter-Glo); format: cell-based, Lactobacillus crispatus; conditions: 6 × 10^7 CFU/ml, peptide 5 µg, 10 mM SPB, 6 h, 37 °C; luminescence; n = 5; statistical significance not reached in all conditions
Method: as §2

L. jensenii [6] = experiment: Internalization of fluorescent-labeled peptides in bacteria (flow cytometry); format: cell-based, Lactobacillus jensenii; conditions: Atto 488-labeled peptide 5 µg/ml, 5 × 10^4 CFU/ml, 10 mM SPB, 1 h30, 37 °C, trypan blue, n = 3
Method: (§3) To determine the incorporation of selected peptides (or their hydrolyzed products) within the cytoplasm of several bacterial species, free amine groups (lysine residues and N-terminus) were first conjugated with Atto 488 dye according to manufacturer’s recommendations (Atto 488 protein labeling kit, Sigma Aldrich). A total 5 × 10^4 colony-forming unit (CFU)/ml were then mixed with fluorescent labeled peptides (5 µg/ml) in 10 mM sodium phosphate buffer (final volume 100 µl) and incubated for 1 h30 at 37 °C before being analyzed by flow cytometry. Where indicated, trypan blue was added before the analysis in order to exclusively consider cytoplasmic fluorescence.

L. crispatus [7] = experiment: as above; format: cell-based, Lactobacillus crispatus; conditions: Atto 488-labeled peptide 5 µg/ml, 5 × 10^4 CFU/ml, 10 mM SPB, 1 h30, 37 °C, trypan blue, n = 3
Method: as §3

L. jensenii [8] = experiment: ATP measurement in bacteria (BacTiter-Glo); format: cell-based, Lactobacillus jensenii; conditions: 6 × 10^7 CFU/ml, peptide 5 µg, 10 mM SPB, 6 h, 37 °C; luminescence; n = 5; statistical significance not reached in all conditions
Method: as §2

L. iners [9] = experiment: Internalization of fluorescent-labeled peptides in bacteria (flow cytometry); format: cell-based, Lactobacillus iners; conditions: Atto 488-labeled peptide 5 µg/ml, 5 × 10^4 CFU/ml, 10 mM SPB, 1 h30, 37 °C, trypan blue, n = 3
Method: as §3

E-cadherin (CDH1) = experiment: Reactivation of hypermethylated CDH1 gene (Western blot); format: cell-based, human; conditions: 5 µM
Method: Immortalized keratinocytes (1.5 × 10^5 cells per well of a six-well plate) were transfected with ON-TARGETplus SMARTpool siRNAs targeting p65, β-catenin or c-Myc (Dharmacon, Lafayette, CO, USA) using Oligofectamine Transfection Reagent (Invitrogen). Oligos targeting the firefly luciferase gene (siGL2) were used as control. For each experiment, siRNA (40 nM) and 6 µl of Oligofectamine were diluted in 1 ml of Optimem (Invitrogen). The cells were incubated with the mixture for 4 h at 37 °C. Twenty-four hours after transfection, cells were either harvested or stimulated with LPS (2 µg/ml) or TNFα (20 ng/ml) and experiments were performed. For the chemical inhibition of NF-kB or c-Myc, BAY 11-7082 (5 µM, Sigma Aldrich) or 10058-F4 (40 µM, Selleckchem, Houston, TX, USA) was added to cell cultures before RNA expression analyses. […]
After extraction in 1% SDS buffer (total extraction) containing protease and phosphatase inhibitors (Roche) and quantification (BCA protein assay kit; Pierce, Rockford, IL, USA), twenty micrograms of proteins were separated on 10% SDS-PAGE and transferred to PVDF membranes (Roche). […] The protein bands were detected using an enhanced chemiluminescence system (Westar ECL-Sun, Cyanagen, Bologna, Italy) and finally quantified by densitometry using ImageJ software. […]

| Molecule | Bacterial survival (surviving colonies) [1] | positive effect on survival in potassium phosphate buffer [1] | positive effect on survival in acidic conditions [1] | effect on bacterial growth/survival (percentage of surviving colonies) [1] | antimicrobial/protective activity in reducing environment [1] | incubation time at which a significant increased percentage of surviving colonies was detected [1] | Bacterial survival (surviving colonies) [2] | positive effect on survival in potassium phosphate buffer [2] | positive effect on survival in acidic conditions [2] | effect on bacterial growth/survival (percentage of surviving colonies) [2] | antimicrobial/protective activity in reducing environment [2] | incubation time at which a significant increased percentage of surviving colonies was detected [2] | Bacterial survival (surviving colonies) [3] | positive effect on survival in potassium phosphate buffer [3] | positive effect on survival in acidic conditions [3] | effect on bacterial growth/survival (percentage of surviving colonies) [3] | antimicrobial/protective activity in reducing environment [3] | incubation time at which a significant increased percentage of surviving colonies was detected [3] | ATP production (L. iners [4]) | ATP production (L. crispatus [5]) | other results |
| --- | --- | --- | --- | --- | --- | --- | --- | --- | --- | --- | --- | --- | --- | --- | --- | --- | --- | --- | --- | --- | --- |
| elafin: "defensin-like" innate peptide constitutively secreted by cervical/vaginal mucosa (PeptaNova) (AQEPVKGPVSTKPGSCPIILIRCAMLNPPNRCLKDTDCPGIKKCCEGSCGMACFVPQ; not fully specified; ends and bridges not checked; UniProt P19957 61-117, looked up) | 148.35 and 185.56 and 157.03 and 142.84 | did not modify the positive effect | did not modify the positive effect | do not display any antimicrobial activities | significant protective effect | only detected after 3 or 6 h | 223.81 and 226.19 and 261.90 and 150.02 | did not modify the positive effect | did not modify the positive effect | do not display any antimicrobial activities | significant protective effect | only detected after 3 or 6 h | 124.66 and 146.1 and 157.25 and 154.15 | did not modify the positive effect | did not modify the positive effect | do not display any antimicrobial activities | significant protective effect | only detected after 3 or 6 h | increase of ATP production | increase of ATP production | internalization of fluorescent-labeled peptide (or hydrolyzed products) within the cytoplasm of bacteria (L. jensenii [6]): internalization; internalization of fluorescent-labeled peptide (or hydrolyzed products) within the cytoplasm of bacteria (L. crispatus [7]): internalization; ATP production (L. jensenii [8]): increase of ATP production; internalization of fluorescent-labeled peptide (or hydrolyzed products) within the cytoplasm of bacteria (L. iners [9]): internalization |
| Nc1ncn([C@H]2C[C@H](O)[C@@H](CO)O2)c(=O)n1 [5-aza-deoxycytidine] | – | – | – | – | – | – | – | – | – | – | – | – | – | – | – | – | – | – | – | – | CDH1 (E-cadherin) expression, Western blot (E-cadherin (CDH1)): reactivation of silenced CDH1 gene |
| B1 | 138.53 and 246.67 and 123.50 and 159.47 | did not modify the positive effect | did not modify the positive effect | do not display any antimicrobial activities | significant protective effect | only detected after 3 or 6 h | 419.05 and 164.29 and 304.76 and 269.05 | did not modify the positive effect | did not modify the positive effect | do not display any antimicrobial activities | significant protective effect | only detected after 3 or 6 h | 127.74 and 112.92 and 139.54 and 168.69 | did not modify the positive effect | did not modify the positive effect | do not display any antimicrobial activities | significant protective effect | only detected after 3 or 6 h | increase of ATP production | increase of ATP production | internalization of fluorescent-labeled peptide (or hydrolyzed products) within the cytoplasm of bacteria (L. jensenii [6]): internalization; internalization of fluorescent-labeled peptide (or hydrolyzed products) within the cytoplasm of bacteria (L. crispatus [7]): internalization; ATP production (L. jensenii [8]): increase of ATP production; internalization of fluorescent-labeled peptide (or hydrolyzed products) within the cytoplasm of bacteria (L. iners [9]): internalization |

Reference: paper PMC8885657, “HPV infection alters vaginal microbiome through down-regulating host mucosal innate peptides used by Lactobacilli as amino acid sources” (Nature Communications, 2022)
